Experimental data reported in patent US10278964B2, “Medical treatments based on anamorelin” (HELSINN HEALTHCARE SA, priority 2014, dated 2019).
Where “and” joins values, the source holds several entries; their conditions need not be identical. Identical values can stand only once. Entries after “also recorded” stand apart in the source; their conditions may differ.

How the values were obtained:
[1] = system: patients with advanced cancer and cachexia; conditions: after 4 weeks; cited from earlier work
[2] = system: patients with various cancers with cachexia; conditions: 50 mg once per day, cited from earlier work
[3] = system: healthy subjects; conditions: 50 or 75 mg doses; after 6 days; cited from earlier work
[4] = system: patients with NSCLC-Cachexia; experiment: Romana 1: randomized, double-blind, placebo-controlled phase 3 study of anamorelin HCl; assay type: in vivo, human; conditions: for Fatigue Domain of FACIT-F, change from baseline, subgroup / Simplified Evaluation of Fatigue (SEF), change from baseline, subgroup: MITT
Source text: Example 1 Anamorelin HCl in the Treatment of Non-Small Cell Lung Cancer—Cachexia (NSCLC-C): A Randomized, Double-Blind, Placebo-Controlled, Multicenter, Phase III Study to Evaluate the Safety and Efficacy of Anamorelin HCl in Patients with NSCLC-C(Romana 1)
(§1) Key features of the Romana 1 study are as follows: • DESIGN: randomized, double-blind, placebo-controlled, multicenter, phase 3 study to evaluate the safety and efficacy of anamorelin HCl (anamorelin) in patients with NSCLC-Cachexia (59 sites; 15 countries) • PRIMARY ENDPOINT: Lean body mass (LBM) by DXA • SECONDARY ENDPOINTS: • Key: pooled overall survival, Anorexia/Cachexia sub-domain, Fatigue sub-domain, Simplified Evaluation of Appetite (SEA), and Simplified Evaluation of Fatigue (SEF) • Other: Body weight, study specific overall survival, FAACT/FACIT-F trial outcome index (TOI) and total scores, additional LBM analyses • EXPLORATORY ENDPOINTS: Hunger Assessment Scale (HAS), Karnofsky (KPS), responder analyses; Population pharmacokinetics (PK) in 90 patients • STUDY POPULATION: advanced NSCLC (unresectable Stage III or IV) and cachexia (≥5% body weight within 6 months or screening BMI<20 kg/m^2) • SAMPLE SIZE: 484 patients; randomization ratio 2:1 (anamorelin:placebo) • DOSING: placebo or 100 mg anamorelin for 12 weeks • SAFETY ASSESSMENTS: Adverse events (AEs), labs, vitals, ECGs

[5] = system: patients with advanced non-small cell lung cancer (NSCLC); conditions: cited from earlier work
[6] = system: healthy subjects; conditions: cited from earlier work
[7] = system: patients with various cancers and cachexia; conditions: 50 mg once per day; cited from earlier work
[8] = system: patients with NSCLC-Cachexia; experiment: Romana 2: randomized, double-blind, placebo-controlled phase 3 study of anamorelin HCl; assay type: in vivo, human
Source text: Example 2 Anamorelin HCL in the Treatment of Non-Small Cell Lung Cancer—Cachexia (NSCLC-C): A Randomized, Double-Blind, Placebo-Controlled, Multicenter, Phase III Study to Evaluate the Safety and Efficacy of Anamorelin Hcl in Patients with NSCLC-C(Romana 2)
as §1, with “Romana 2” for “Romana 1”, “SIZE: 495” for “SIZE: 484”

[9] = system: patients with cancer anorexia-cachexia syndrome; conditions: cited from earlier work
[10] = ITT population, 100 mg anamorelin for 12 weeks, LBM by DXA
[11] = ITT population, over 12 weeks, 100 mg
[12] = MITT population, 12-week study period, anamorelin vs. placebo
[13] = MITT population, over 12 weeks, 100 mg
[14] = anamorelin treatment for 12 weeks

## COc1ccc2[nH]cc(CCNC(C)=O)c2c1 [melatonin]
[1]
  Weight, body composition (including fat-free mass), symptom scores, quality-of-life outcomes (FACIT-F and FAACT) vs placebo: No differences

## CN(C)N(C)C(=O)[C@@]1(Cc2ccccc2)CCCN(C(=O)[C@@H](Cc2c[nH]c3ccccc23)NC(=O)C(C)(C)N)C1 [anamorelin]
[2]
  ASAS scores: improved
  Fat mass decrease vs. placebo: the difference did not reach statistical significance
  Quality of life as measured by the FACIT-F test: No significant effects
  Scale weight measures: no corresponding increase
[2]; weeks 4, 8, and 12
  Levels of IGF-1: significantly increased
  Levels of IGFBP-3: significantly increased
[2]; weeks 4 and 8
  Lean body mass compared to placebo: significantly increased
  Total body mass compared to placebo: significantly increased
[3]
  Body weight gain versus placebo: significant dose-related weight gain
[4]; [10]
  Lean Body Mass, median change from baseline over 12 weeks: 1.10 kg
[4]; [11]
  Lean Body Mass, median treatment difference (anamorelin vs. placebo): 1.54 kg
[4]; [12]
  FAACT TOI, overall treatment difference: 2.86±1.161
  FAACT Total, overall treatment difference: 2.67±1.459
  FACIT TOI, overall treatment difference: 1.90±1.358
  FACIT Total, overall treatment difference: 2.07±1.651
[4]; [13]
  Anorexia/Cachexia Domain, Treatment Difference (anamorelin vs. placebo), LS Mean (SE): 2.21 (0.617)
  Body Weight, Treatment Difference (anamorelin vs. placebo), LS Mean (SE): 2.07 (0.325) kg
  Body Weight, overall change from baseline, LS Mean (SE): 2.20±0.3 kg and 2.20 (0.326) kg
  FACIT-F Fatigue Domain, change from baseline, LS Mean (SE): 0.26 (0.886)
  SEA Score, Treatment Difference (anamorelin vs. placebo), LS Mean (SE): 0.65 (0.262)
  SEA Score, change from baseline, LS Mean (SE): 1.57 (0.317)
  SEF Score, Treatment Difference (anamorelin vs. placebo), LS Mean (SE): 0.33 (0.265)
  SEF Score, change from baseline, LS Mean (SE): 0.11 (0.309)
[4]; BMI>18.5, Week 3 to 12
  Fatigue Domain of FACIT-F, change from baseline, subgroup: smaller improvement trend
[4]; BMI≤18.5 (statistically significant at Week 3 and 6)
  Simplified Evaluation of Fatigue (SEF), change from baseline, subgroup: improvement trend over 12 Weeks
[4]; ECOG 0-1, Week 3, 6, 9 to 12
  Fatigue Domain of FACIT-F, change from baseline, subgroup: gap increase between placebo and anamorelin
[4]; aged 65 years and younger, concomitant opioid use, ECOG 2 (Weeks 9 and 12), BMI≤18.5
  Fatigue Domain of FACIT-F, change from baseline, subgroup: statistically significant improvement
[4]; concomitant opioid use
  Simplified Evaluation of Fatigue (SEF), change from baseline, subgroup: small trend of improvement
[4]; males, Week 3 to 6 (statistically significant at Week 9)
  Fatigue Domain of FACIT-F, change from baseline, subgroup: general improvement trend
[4]; no-concomitant opioid use
  Fatigue Domain of FACIT-F, change from baseline, subgroup: smaller overall improvement trend
[4]; [14]
  Tolerability: well tolerated
[4]; throughout the 12-week study
  Percentage change from baseline in LBM: consistent improvement
[4]; week 9, 100 mg
  FACIT-F score (fatigue), change from baseline: 0.33±0.9
[4]; week 12, 100 mg
  FACIT-F score (fatigue), change from baseline: 0.48±1.0
[5]; 100 mg once daily
  Average weight gain from baseline to week 12: statistically significant average weight gain
[5]; 50 or 100 mg once daily
  IGFBP-3 as compared to placebo: statistically significant increases
  MD Anderson Symptom Inventory (MDASI) scores: the improvement was not significant
[6]; 50 mg dose (single or split dose) and 75 mg dose
  Body weight: significant increases
[6]; all doses (25, 50, 75 mg)
  GH levels: significantly increased
  IGF-1 levels: significantly increased
[7]
  Appetite as measured by BACRI-7: no significant difference
  Body weight compared with placebo: significantly increased
  Enjoyment from eating (BACRI-7): significantly more patients reported greater enjoyment from eating
  FACIT-F scores: significantly increased
  Food intake: increased but not significantly
  GH levels: significantly increased
  IGF-1 levels: significantly increased
  IGFBP-3 levels: significantly increased
  Patient-reported appetite as measured by ASAS: significantly improved
[8]; [10]
  Lean Body Mass, median change from baseline over 12 weeks: 0.75
[8]; [11]
  Lean Body Mass, median treatment difference (anamorelin vs. placebo): 1.71
[8]; MITT population
  FAACT TOI and total score (cachexia concerns): trending benefit
  FACIT-F TOI and total score: No benefit
[8]; MITT population, 12-week study period
  SEF score vs. placebo: overall small trend of improvement; also recorded: not statistically different from placebo
[8]; [13]
  Anorexia/Cachexia Domain, Treatment Difference (anamorelin vs. placebo), LS Mean (SE): 2.14 (0.676)
  Body Weight, Treatment Difference (anamorelin vs. placebo), LS Mean (SE): 1.53 (0.327) kg
  Body Weight, overall change from baseline, LS Mean (SE): 0.95 (0.386) kg
  FAACT Anorexia/Cachexia Domain, change from baseline, LS Mean (SE): 3.48 (0.944)
  SEA Score, Treatment Difference (anamorelin vs. placebo), LS Mean (SE): 0.66 (0.283)
  SEA Score, change from baseline, LS Mean (SE): 1.08 (0.400)
[8]; MITT, BMI less than or equal to 18.5
  FACIT-F fatigue score, subgroup: maintained a steady score after Week 3
[8]; MITT, ECOG of 2
  FACIT-F fatigue score, subgroup: general trend of improvement
[8]; MITT, concomitant opioid use and BMI≤18.5
  SEF score, subgroups: Specific improvements
[8]; MITT, concomitantly taking opioids, after Week 3
  FACIT-F fatigue score, subgroup: did not experience as severe of a decline in score as those in the placebo group
[8]; MITT, patients under the age of 65, after Week 3
  FACIT-F fatigue score, subgroup: did not experience as severe of a decline in score as those in the placebo group
[8]; [14]
  Tolerability: well tolerated
[8]; in vivo
  Concerns related to weight and body image (FAACT): an improvement
  Percentage of change in LBM: consistent increases
  Symptoms of early satiety and appetite (individual FAACT questions), change from baseline over time: showed an improvement

## CC(=O)O[C@]1(C(C)=O)CC[C@H]2[C@@H]3C=C(C)C4=CC(=O)CC[C@]4(C)[C@H]3CC[C@@]21C [megestrol acetate]
[9]; 13 of 14 studies no significant difference vs placebo, dronabinol, eicosapentaenoic acid or glucocorticosteroids
  Quality of life in cancer cachexia patients: has not been shown to improve
[9]; human, in vivo
  Body weight and water: only been shown to increase body weight and water
  Fat mass or lean body mass: does not improve
